Series [1] addresses T1, recombinant human α4β2 nicotinic acetylcholine receptor (Homo sapiens, UniProt P17787+P43681).
T1 construct: expressed in transfected cells
The experiment in a line: Determination of IC50 and Kb values, aequorin luminescence assay in CHO cells. It is filed as cell-based. The conditions noted are these: antagonist mode, fixed concentration of agonist epibatidine, CHO cells, luminescence; read-out: Kb. The protocol:
Determination of IC50 and Kb Values for Nicotinic Acetylcholine α4β2 Receptor Ligands
A stable CHO cell line expressing recombinant human α4β2 nicotinic acetylcholine receptor transiently expressing aequorin protein was used for cell-based assay. The assay offers a non-radioactive based approach to determine binding of a compound to ligand gated ion channels. In this specific assay, the level of intracellular calcium which is modulated by activation or inhibition of the channel is measured. Both the channel and aequorin genes are expressed at high level under the control of powerful CMV promotor.
The above cells were grown in 96 well clear bottom white plates in Hams F12 medium containing 10% fetal bovine serum (FBS). Prior to the addition of compounds and/or agonist, cells were serum starved for six hours. Coelentarazine (a prosthetic group for aequorin protein) was added in the medium containing 0.1% dialyzed serum and incubated overnight at 27° C. Cells were washed with assay buffer and increasing concentration of the test compound or standard were added to the plate for antagonist mode. A fixed concentration of the agonist (eipbatidine) was injected into the plate and luminescence was measured for 10 seconds. For evaluation of the compound in agonist mode, increasing concentration of the standard or test compound was injected and the luminescence was measured. Luminescence units were plotted against the compound concentrations using Graphpad software. IC50 values of the compounds were defined as the concentration required in reducing the luminescent units by 50%. The Kb values were calculated by feeding the concentration of the agonist used in the assay and its EC50 value in the same software.
Literature References: Karadsheh M. S., Shah M. S., Tang X., Macdonald R. L. and Stitzel J. A. Functional characterization of mouse α4β2 nicotinic acetylcholine receptors stably expressed in HEK293T cells. J. Neurochem. 2004, 91, 1138-1150.

For series [2], the system named is Male Wister rats. The experiment in a line: Reversal of Formalin Induced Nociception. In kind it is in vivo. The following applies: rat, p.o., formalin 5% v/v subplantar. The protocol: Reversal of Formalin Induced Nociception
The anti-nociceptive properties of compounds of this invention were evaluated using a model of pain: the Formalin Induced Nociception model. Male Wister rats (230-280 grams) obtained from N. I. N. (National Institute of Nutrition, Hyderabad, India) was used as experimental animals.
Rats were habituated for 20 minutes in the arena before the experiment was started. Duration of licks, bites and flinches were noted from 0-10 minutes and 20-35 minutes after administration of formalin, subplantar into the right hind paw at concentrations of 5% v/v. 50 μL of water for injection was injected into the right hind paw of the rats of the sham group. Compounds of this invention were administered orally prior to formalin administration.

The nature of series [3]: Rodent Pharmacokinetic Study. The following applies: Wistar, in vivo, Wister rat male. The protocol:
Rodent Pharmacokinetic Study
Male wistar rats (230-280 grams) obtained from NIN (National Institute of Nutrition, Hyderabad, India) were used as an experimental animal. Three to five animals were housed in each cage. Animals were kept fasted over night and maintained on a 12 hours light/dark cycle. […]
At each time point blood was collected by jugular vein. Plasma was stored frozen at −20° C. until analysis. The concentrations of the NCE compound in plasma were determined using LC-MS/MS method. Schedule time points: Pre dose 0.25, 0.5, 1, 1.5, 2, 3, 4, 6, 8, 10, 12 and 24 hours after dosing (n=3). The NCE compounds were quantified in plasma by validated LC-MS/MS method using solid phase extraction technique. NCE compounds were quantified in the calibration range of 1-2000 ng/mL in plasma. Study samples were analyzed using calibration samples in the batch and quality control samples spread across the batch. Pharmacokinetic parameters Cmax, Tmax, AUCs, T112 and Bioavailability were calculated by non-compartmental model using software WinNonlin version 5.0.1.

Series [4] relates to Male Wister rats. In words: Object Recognition Task Model. In kind it is in vivo. The conditions noted are these: rat; for Exploration time mean ± S.E.M, Familiar object / Exploration time mean ± S.E.M, Novel object: choice trial T2. How it is done: Object Recognition Task Model
The cognition-enhancing properties of compounds of this invention were estimated using a model of animal cognition: the object recognition task model.
Male Wister rats (230-280 grams) obtained from N. I. N. (National Institute of Nutrition, Hyderabad, India) was used as experimental animals. Four animals were housed in each cage. Animals were kept on 20% food deprivation before one day and given water ad libitum throughout the experiment and maintained on a 12 hours light/dark cycle. Also the rats were habituated to individual arenas for 1 hour in the absence of any objects.
One group of 12 rats received vehicle (1 mL/Kg) orally and another set of animals received compound of the formula (I) either orally or i.p., before one hour of the familiar (T1) and choice trial (T2).
The experiment was carried out in a 50×50×50 cm open field made up of acrylic. In the familiarization phase, (T1), the rats were placed individually in the open field for 3 minutes, in which two identical objects (plastic bottles, 12.5 cm height×5.5 cm diameter) covered in yellow masking tape alone (a1 and a2) were positioned in two adjacent corners, 10 cm. from the walls. After 24 hours of the (T1) trial for long-term memory test, the same rats were placed in the same arena as they were placed in T1 trial. Choice phase (T2) rats were allowed to explore the open field for 3 minutes in presence of one familiar object (a3) and one novel object (b) (Amber color glass bottle, 12 cm high and 5 cm in diameter). Familiar objects presented similar textures, colors and sizes. During the T1 and T2 trial, explorations of each object (defined as sniffing, licking, chewing or having moving vibrissae whilst directing the nose towards the object at a distance of less than 1 cm) were recorded separately by stopwatch. Sitting on an object was not regarded as exploratory activity, however, it was rarely observed.
T1 is the total time spent exploring the familiar objects (a1+a2).
T2 is the total time spent exploring the familiar object and novel object (a3+b).
The object recognition test was performed as described by Ennaceur, A., Delacour, J., 1988, A new one-trial test for neurobiological studies of memory in rats—Behavioural data, Behay. Brain Res., 31, 47-59.
Some representative compounds have shown positive effects indicating the increased novel object recognition viz; increased exploration time with novel object and higher discrimination index.

As a reminder, the Kb is the affinity of an antagonist, worked out from how it opposes an agonist. The term AUC(0-t) denotes the area under the concentration-time curve up to a stated or last time point. Higher therefore signals more exposure. Usually Cmax stands for the highest concentration seen after dosing. For orientation: Tmax means the time at which the peak concentration occurs. One may read the half-life as how long it takes for the measured level to halve. A lower half-life goes with fast loss. In general, bioavailability refers to dose-corrected exposure relative to a reference, in per cent. Low values mean little systemic uptake, high ones much systemic uptake.

T1 sequence (P43681 29-627): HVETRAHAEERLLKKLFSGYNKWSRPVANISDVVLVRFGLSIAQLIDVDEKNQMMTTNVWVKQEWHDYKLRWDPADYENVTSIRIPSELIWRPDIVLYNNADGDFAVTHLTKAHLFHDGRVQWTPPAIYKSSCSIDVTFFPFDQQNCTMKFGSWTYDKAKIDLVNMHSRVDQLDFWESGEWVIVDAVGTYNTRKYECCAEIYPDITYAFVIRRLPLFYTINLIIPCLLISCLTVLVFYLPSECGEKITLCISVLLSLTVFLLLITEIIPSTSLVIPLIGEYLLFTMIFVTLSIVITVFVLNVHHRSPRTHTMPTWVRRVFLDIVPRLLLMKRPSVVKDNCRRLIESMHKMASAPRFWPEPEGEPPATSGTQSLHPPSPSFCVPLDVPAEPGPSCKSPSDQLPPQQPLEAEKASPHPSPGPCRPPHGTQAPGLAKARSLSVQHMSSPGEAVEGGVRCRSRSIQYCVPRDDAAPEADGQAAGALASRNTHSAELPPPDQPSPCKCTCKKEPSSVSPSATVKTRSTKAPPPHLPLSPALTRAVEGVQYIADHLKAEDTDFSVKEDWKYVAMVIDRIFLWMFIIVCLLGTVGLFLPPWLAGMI
T1 sequence (P17787 26-502): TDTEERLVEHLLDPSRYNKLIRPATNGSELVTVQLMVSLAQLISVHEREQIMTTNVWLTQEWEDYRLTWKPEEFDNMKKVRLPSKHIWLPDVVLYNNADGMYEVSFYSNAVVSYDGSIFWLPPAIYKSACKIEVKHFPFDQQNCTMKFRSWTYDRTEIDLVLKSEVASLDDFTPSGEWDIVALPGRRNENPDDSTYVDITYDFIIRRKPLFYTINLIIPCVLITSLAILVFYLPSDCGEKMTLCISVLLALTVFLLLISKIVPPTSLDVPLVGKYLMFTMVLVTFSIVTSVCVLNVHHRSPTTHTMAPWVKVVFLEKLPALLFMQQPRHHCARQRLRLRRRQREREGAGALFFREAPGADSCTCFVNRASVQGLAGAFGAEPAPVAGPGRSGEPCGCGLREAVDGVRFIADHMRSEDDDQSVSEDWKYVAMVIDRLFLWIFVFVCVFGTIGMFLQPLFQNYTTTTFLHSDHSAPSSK

`Cl.c1cncc(OCC2CC3CC3N2)c1` (stereo not shown) [Example 1, 3-(Pyridin-3-yloxymethyl)-2-azabicyclo[3.1.0]hexane hydrochloride]: the Kb in series [1] is 7.1 nM. Also, the “Dose (reversal of formalin induced nociception)” value in the series with Male Wister rats [2] was “≦10 mg/kg, p.o”. In series [3] (iv, I.V, 5 mg/kg), the exposure AUC(0-t) amounted to 4050 ± 679 ng·h/mL, the Cmax turned out to be 3180 ± 38 ng/mL, the Tmax stood at 4.8 min and the half-life was 116 ± 37.2 min. For the same compound, in series [3] (po, P.O 15 mg/kg vs I.V 5 mg/kg), the bioavailability was found to be 92 ± 16%. Moreover, in series [3] (po, P.O, 15 mg/kg), the AUC(0-t) was 10900 ± 646 ng·h/mL, the concentration peaked (Cmax) at 7610 ± 1660 ng/mL, the Tmax stood at 15 min and the half-life was 251 ± 91.8 min. In the series with Male Wister rats [4] (0.1 mg/kg p.o.), the Inference entry is recorded as “Active”; the “Exploration time mean ± S.E.M, Familiar object” value is 7.75 ± 0.84 s; the “Exploration time mean ± S.E.M, Novel object” value turned out to be 12.65 ± 1.96 s.

Take `Cl.Cl.Clc1cncc(OCC2CC3CC3N2)c1` (stereo not shown) [Example 7, 3-(5-Chloropyridin-3-yloxymethyl)-2-azabicyclo[3.1.0]hexane dihydrochloride]: the Kb in series [1] is 17.8 nM. Moreover, the “Dose (reversal of formalin induced nociception)” value in the series with Male Wister rats [2] is “≦30 mg/kg, p.o”. Moreover, in series [3] (iv, I.V, 5 mg/kg), the AUC(0-t) came out at 2390 ± 196 ng·h/mL, the concentration peaked (Cmax) at 2340 ± 388 ng/mL, the Tmax was determined as 4.8 min and the half-life is 51.6 ± 1.8 min. This compound came in with a bioavailability in series [3] (po, P.O 5 mg/kg vs I.V 5 mg/kg) of 50 ± 13%. In addition, in series [3] (po, P.O, 5 mg/kg), the exposure AUC(0-t) came to 1190 ± 201 ng·h/mL, the Cmax was 949 ± 200 ng/mL, the Tmax was determined as 15 min and the half-life was 64.2 ± 2.4 min. In the series with Male Wister rats [4] (1 mg/kg p.o.), the Inference entry was “Active”; the “Exploration time mean ± S.E.M, Familiar object” value is 6.81 ± 1.49 s; the “Exploration time mean ± S.E.M, Novel object” value was found to be 16.70 ± 3.19 s.
